According to US9908872B2, “Methods to treat lymphoplasmacytic lymphoma” (Dana-Farber Cancer Institute, Inc., priority 2013, dated 2018):
Where “and” joins values, the source holds several entries; their conditions need not be identical. Equal values may be shown once.

Legend:
[1] = tested on: BCWM.1; assay: CellTiter-Glo cell viability assay; assay type: cell-based; conditions: 72 hours, cell survival
Protocol: (§1) CellTiter-Glo® Luminescent cell viability assay (Promega) was used to assess cell survival following treatment with the compounds described. Cells were seeded into 384 well plates with the EL406 Combination Washer Dispenser (BioTek Instruments, Inc.), and the compounds were injected into the cells culture media with the JANUS Automated Workstation (PerkinElmer Inc.). Cells were treated with a series diluted inhibitors (20˜0.04 μM) for 72 hours at 37° C. Luminescent measurement is performed using the 2104 Envision® Multilabel Reader (PerkinElmer Inc.).

[2] = tested on: MWCL-1; assay: CellTiter-Glo cell viability assay; assay type: cell-based; conditions: 72 hours, cell survival
Protocol: as §1

[3] = tested on: OCI-Ly3; assay: CellTiter-Glo cell viability assay; assay type: cell-based; conditions: Homo sapiens, 72 hours, cell survival
Protocol: as §1

[4] = tested on: RPCIWM-1; assay: CellTiter-Glo cell viability assay; assay type: cell-based; conditions: 72 hours, cell survival
Protocol: as §1

[5] = tested on: Ramos; assay: CellTiter-Glo cell viability assay; assay type: cell-based; conditions: 72 hours, cell survival
Protocol: as §1

[6] = tested on: ABL, ARG; assay: KiNativ profiling, A375 cells; assay type: binding, Homo sapiens; conditions: 1 μM, labeling site Activation Loop
[7] = tested on: AMPKa1, AMPKa2; assay: KiNativ profiling, A375 cells; assay type: binding, Homo sapiens; conditions: 1 μM, labeling site Lys1
[8] = tested on: CaMK2a, CaMK2b, CaMK2d, CaMK2g; assay: KiNativ profiling, A375 cells; assay type: binding, Homo sapiens; conditions: 1 μM, labeling site Lys2
[9] = tested on: CDK11, CDK8; assay: KiNativ profiling, A375 cells; assay type: binding, Homo sapiens; conditions: 1 μM, labeling site Lys2
[10] = tested on: FYN, SRC, YES; assay: KiNativ profiling, A375 cells; assay type: binding, Homo sapiens; conditions: 1 μM, labeling site Activation Loop
[11] = tested on: IKKe, TBK1; assay: KiNativ profiling, A375 cells; assay type: binding, Homo sapiens; conditions: 1 μM, labeling site Lys2
[12] = tested on: JNK1, JNK2, JNK3; assay: KiNativ profiling, A375 cells; assay type: binding, Homo sapiens; conditions: 1 μM, labeling site Lys2
[13] = tested on: LYN; assay type: binding, Homo sapiens
[14] = tested on: MAP2K1, MAP2K2; assay: KiNativ profiling, A375 cells; assay type: binding, Homo sapiens; conditions: 1 μM, labeling site Lys2
[15] = tested on: MAP3K2, MAP3K3; assay: KiNativ profiling, A375 cells; assay type: binding, Homo sapiens; conditions: 1 μM, labeling site Lys2
[16] = tested on: MARK1, MARK2; assay: KiNativ profiling, A375 cells; assay type: binding, Homo sapiens; conditions: 1 μM, labeling site Lys1
[17] = tested on: MARK2, MARK3; assay: KiNativ profiling, A375 cells; assay type: binding, Homo sapiens; conditions: 1 μM, labeling site Lys2
[18] = tested on: MST4, YSK1; assay: KiNativ profiling, A375 cells; assay type: binding, Homo sapiens; conditions: 1 μM, labeling site Lys2
[19] = tested on: NEK6, NEK7; assay: KiNativ profiling, A375 cells; assay type: binding, Homo sapiens; conditions: 1 μM, labeling site Lys2
[20] = tested on: p38d, p38g; assay: KiNativ profiling, A375 cells; assay type: binding, Homo sapiens; conditions: 1 μM, labeling site Lys2
[21] = tested on: PITSLRE; assay: KiNativ profiling, A375 cells; assay type: binding, Homo sapiens; conditions: 1 μM, labeling site Lys2
[22] = tested on: PKD1, PKD2; assay: KiNativ profiling, A375 cells; assay type: binding, Homo sapiens; conditions: 1 μM, labeling site Lys2
[23] = tested on: ROCK1, ROCK2; assay: KiNativ profiling, A375 cells; assay type: binding, Homo sapiens; conditions: 1 μM, labeling site Lys2
[24] = tested on: TAO1, TAO3; assay: KiNativ profiling, A375 cells; assay type: binding, Homo sapiens; conditions: 1 μM, labeling site Lys2
[25] = tested on: ZAK; assay type: binding, Homo sapiens
[26] = tested on: ZC1/HGK, ZC2/TNIK, ZC3/MINK; assay: KiNativ profiling, A375 cells; assay type: binding, Homo sapiens; conditions: 1 μM, labeling site Lys2
[27] = tested on: OCI-Ly19; assay: CellTiter-Glo cell viability assay; assay type: cell-based; conditions: 72 hours, cell survival
Protocol: as §1

CCN1CCN(Cc2ccc(NC(=O)c3ccc(Cl)c(NC(=O)c4cncc(-c5cccs5)c4)c3)cc2C(F)(F)F)CC1 [I-2, N-(2-chloro-5-((4-((4-ethylpiperazin-1-yl)methyl)-3-(trifluoromethyl)phenyl)carbamoyl)phenyl)-5-(thiophen-2-yl)nicotinamide]
EC50 ([1]; BCWM1): 12 nM | EC50 [2]: 16 nM | EC50 [3]: 161 nM | EC50 [4]: 110 nM | EC50 ([5]; Homo sapiens, Ramos): 60 nM

Cc1ccc(C(=O)Nc2cccc(C(C)(C)C#N)c2)cc1NC(=O)c1cncc(-c2cccs2)c1 [I-6, N-(5-((3-(2-cyanopropan-2-yl)phenyl)carbamoyl)-2-methylphenyl)-5-(thiophen-2-yl)nicotinamide]
KiNativ inhibition of ABL, ARG [6]: >90% | KiNativ inhibition of AMPKa1, AMPKa2 [7]: 15.3% | KiNativ inhibition of CaMK2a, CaMK2b, CaMK2d, CaMK2g [8]: 0.7% | KiNativ inhibition of CDK11, CDK8 [9]: 20.7% | KiNativ inhibition of FYN, SRC, YES [10]: 55.7% | KiNativ inhibition of IKKe, TBK1 [11]: 24.8% | KiNativ inhibition of JNK1, JNK2, JNK3 [12]: 11.7% | KiNativ inhibition of LYN [13]: 87.6% | KiNativ inhibition of MAP2K1, MAP2K2 [14]: 4.1% | KiNativ inhibition of MAP3K2, MAP3K3 [15]: -15.3% | KiNativ inhibition of MARK1, MARK2 [16]: -4.9% | KiNativ inhibition of MARK2, MARK3 [17]: 17.2% | KiNativ inhibition of MST4, YSK1 [18]: 22% | KiNativ inhibition of NEK6, NEK7 [19]: -3.7% | KiNativ inhibition of p38d, p38g [20]: 17.8% | KiNativ inhibition of PITSLRE [21]: 1.9% | KiNativ inhibition of PKD1, PKD2 [22]: -2.5% | KiNativ inhibition of ROCK1, ROCK2 [23]: 12.7% | KiNativ inhibition of TAO1, TAO3 [24]: 11.9% | KiNativ inhibition of ZAK [25]: >95% | KiNativ inhibition of ZC1/HGK, ZC2/TNIK, ZC3/MINK [26]: 27%

CCN1CCN(Cc2ccc(NC(=O)c3ccc(C)c(NC(=O)c4cncc(-c5cnoc5)c4)c3)cc2C(F)(F)F)CC1 [I-8]
EC50 [27]: 56 nM | EC50 [5]: 329 nM

CCN1CCN(Cc2ccc(NC(=O)c3ccc(C)c(NC(=O)c4cncc(-c5cnn(C)c5)c4)c3)cc2C(F)(F)F)CC1 [I-9]
EC50 [1]: 542 nM and 305 nM | EC50 [2]: 294 nM and 281 nM | EC50 [27]: 2650 nM | EC50 [5]: 7470 nM
